Data published in patent US10793563B2, “GCN2 inhibitors and uses thereof” (Merck Patent GmbH, priority 2018, dated 2020).
Like-named read-outs stand apart in the source and are kept apart here.

Experiments:
GCN2 kinase = GCN2 kinase (Homo sapiens (Human), UniProt Q9P2K8); test: GCN2 Enzyme Inhibition Assay (Transcreener ADP2 fluorescence polarization); type: biochemical; conditions: 280 μM ATP, 200 μM (RS)7 peptide, 4 nM GCN2, 25° C.; for Ki: Ki(app)
Method in brief: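 Transcreener ADP2 fluorescence polarization detection of ADP from 4 nM GCN2 with (RS)7 substrate in 25 mM Tris-HCl pH 7.5, 50 mM NaCl, 10 mM MgCl2, 1 mM DTT. Compound pre-incubated with enzyme 10 min at 25 °C; reaction started by ATP, run 1 h at 25 °C. IC50 and Ki(app) by tight-binding fit.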

[1] = target: intracellular GCN2 (phosphorylation of the GCN2 substrate eIF2α) (Homo sapiens (Human), UniProt Q9P2K8); test: GCN2 Cellular Inhibition Assay (AlphaScreen SureFire P-eIF2α Ser51, borrelidin-treated U2OS cells); type: cell-based; conditions: 10 μM borrelidin, 1 h
intracellular GCN2 (phosphorylation of the GCN2 substrate eIF2α), sequence (Q9P2K8 whole entry): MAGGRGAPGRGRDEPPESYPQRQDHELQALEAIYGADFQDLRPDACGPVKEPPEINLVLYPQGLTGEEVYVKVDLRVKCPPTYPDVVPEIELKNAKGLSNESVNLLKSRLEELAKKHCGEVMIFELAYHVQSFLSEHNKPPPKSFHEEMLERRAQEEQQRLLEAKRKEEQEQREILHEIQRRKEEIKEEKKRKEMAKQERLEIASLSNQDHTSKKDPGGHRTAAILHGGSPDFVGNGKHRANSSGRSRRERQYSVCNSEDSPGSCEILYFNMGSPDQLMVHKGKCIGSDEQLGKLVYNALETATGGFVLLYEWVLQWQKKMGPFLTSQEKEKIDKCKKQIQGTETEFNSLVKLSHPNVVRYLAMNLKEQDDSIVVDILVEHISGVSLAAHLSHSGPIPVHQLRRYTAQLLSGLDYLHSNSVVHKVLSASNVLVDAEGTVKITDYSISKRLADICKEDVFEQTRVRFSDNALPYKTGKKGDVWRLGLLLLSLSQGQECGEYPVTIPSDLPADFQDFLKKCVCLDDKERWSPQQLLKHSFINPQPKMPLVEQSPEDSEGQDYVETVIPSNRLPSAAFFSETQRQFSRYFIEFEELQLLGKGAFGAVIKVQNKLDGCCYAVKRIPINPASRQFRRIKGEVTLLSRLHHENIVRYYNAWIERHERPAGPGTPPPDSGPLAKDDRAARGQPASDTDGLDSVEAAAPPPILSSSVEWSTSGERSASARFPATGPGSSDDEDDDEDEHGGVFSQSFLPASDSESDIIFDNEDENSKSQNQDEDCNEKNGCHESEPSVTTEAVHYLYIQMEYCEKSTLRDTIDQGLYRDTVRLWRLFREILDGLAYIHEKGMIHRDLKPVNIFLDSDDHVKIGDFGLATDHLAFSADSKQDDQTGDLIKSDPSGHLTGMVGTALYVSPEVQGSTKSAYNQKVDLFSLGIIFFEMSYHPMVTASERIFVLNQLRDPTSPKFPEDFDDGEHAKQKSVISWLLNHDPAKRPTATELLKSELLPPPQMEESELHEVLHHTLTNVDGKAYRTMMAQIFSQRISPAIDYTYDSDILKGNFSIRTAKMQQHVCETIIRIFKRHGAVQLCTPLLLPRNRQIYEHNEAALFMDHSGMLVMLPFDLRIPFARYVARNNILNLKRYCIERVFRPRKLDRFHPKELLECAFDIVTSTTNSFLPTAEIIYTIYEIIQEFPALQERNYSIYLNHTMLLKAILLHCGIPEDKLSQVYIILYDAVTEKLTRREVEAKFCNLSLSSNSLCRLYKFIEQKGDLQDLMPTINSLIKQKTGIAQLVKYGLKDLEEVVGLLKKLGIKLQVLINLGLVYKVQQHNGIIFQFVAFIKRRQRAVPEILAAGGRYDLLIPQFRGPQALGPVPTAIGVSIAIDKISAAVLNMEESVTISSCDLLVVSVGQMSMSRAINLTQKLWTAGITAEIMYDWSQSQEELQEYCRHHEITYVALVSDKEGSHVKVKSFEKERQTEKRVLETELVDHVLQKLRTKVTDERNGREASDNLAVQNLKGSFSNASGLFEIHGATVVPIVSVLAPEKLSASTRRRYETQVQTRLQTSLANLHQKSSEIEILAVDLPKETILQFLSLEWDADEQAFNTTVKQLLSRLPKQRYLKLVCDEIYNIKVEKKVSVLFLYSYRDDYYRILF
Protocol: Compounds can be screened for their ability to inhibit intracellular GCN2 using an AlphaScreen assay (Perkin Elmer) to detect phosphorylation of the GCN2 substrate eIF2α in borrelidin-treated cells. U2OS cells are plated at 5,000 cells per well in 384-well white polystyrene plates (Corning 3570) in McCoy's 5A media (GIBCO 26600-023) supplemented with 10% foetal bovine serum (SAFC 12103C), Penicillin/Streptomycin solution diluted 1:100 (Sigma P0781), and 2 mM L-glutamine (Sigma G7513), and allowed to adhere overnight at 37° C. in 5% CO2. Compounds are then added to the cell media from a final concentration of 40 μM in 4-fold serial dilutions. Borrelidin (FluoroChem M01440) is immediately added to the wells to a final concentration of 10 μM and the cells are incubated for 1 h at 37° C. in 5% CO2. After 1 h of treatment with borrelidin, the media is removed, and the cells are lysed with lysis buffer (TGR BioSceinces TGRLB) at ambient temperature.
An AlphaScreen SureFire P-eIF2α (Ser51) assay kit (Perkin Elmer TGREIF2S) was used to measure levels of eIF2α phosphorylated on Serine 51. Anti-phosphorylated eIF2α Ser51 antibody-linked acceptor beads (TGR BioScience 6760617) are added to the cell homogenate (diluted 1:250 into a mixture of activation (TGR BioScience TGRAB) and reaction buffer (TGR BioScience TGREIF2S) prepared immediately before use). The plate is then incubated for 2 h at ambient temperature in the dark. Anti-eIF2α antibody-linked donor beads (TGR BioScience 6760617) were then added (diluted 1:100 in dilution buffer (TGR BioScience TGRDB) prepared immediately before use). The plate is then incubated overnight at ambient temperature in the dark.
Plates are analyzed on an Alpha Technology-compatible PHERAstar FS plate reader (BMG Labtech Version 1.14) to quantify phosphorylated eIF2α Ser51 levels. The percentage inhibition of phosphorylated eIF2α is calculated by comparison to control wells stimulated with borrelidin alone.

[2] = phosphorylated eIF2α Ser51, read-out: GCN2 Biomarker (IC50)

GCN2 kinase, sequence (Q9P2K8 whole entry): as above

| SMILES | IC50 (GCN2 kinase) [nM] | IC50 [1, 2] [nM] | Ki (GCN2 kinase) [nM] | IC50 ([1]; GCN2 Biomarker (IC50), phosphorylated eIF2α Ser51) [nM] |
| --- | --- | --- | --- | --- |
| NC(=O)[C@H]1CCCN(c2nccc(-c3cnc4ccc(Cl)cn34)n2)C1 [I-183, (S)-1-(4-(6-chloroimidazo[1,2-a]pyridin-3-yl)pyrimidin-2-yl)piperidine-3-carboxamide] | 10 to 100 | < 500 | – | – |
| CC(=O)N1CCN(c2cccc(-c3cnc4ccc(C(F)(F)F)cn34)n2)CC1 [I-11, 1-[4-[6-[6-(Trifluoromethyl)imidazo[1,2-a]pyridin-3-yl]-2-pyridyl]piperazin-1-yl]ethanone] | – | > 5000 | 10 to 100 | – |
| C[C@@H]1C[C@H](N=S(C)(C)=O)CN(c2nccc(-c3cnc4ccc(C(F)(F)F)cn34)n2)C1 [I-169, dimethyl(((3 S,5R)-5-methyl-1-(4-(6-(trifluoromethyl)imidazo[1,2-a]pyridin-3-yl)pyrimidin-2-yl)piperidin-3-yl)imino)-λ6-sulfanone] | 10 to 100 | 500 to 5000 | – | – |
| Cc1cnc(N2C[C@@H](C)C[C@@H](c3cn[nH]c3)C2)nc1-c1cnc2ccc(Cl)cn12 [I-186, 6-chloro-3-(5-methyl-2-((3S,5S)-3-methyl-5-(1H-pyrazol-4-yl)piperidin-1-yl)pyrimidin-4-yl)imidazo[1,2-a]pyridine] | < 10 | < 500 | – | – |
| O=C(Nc1cn[nH]c1)[C@H]1CCCN(c2ccnc(-c3cnc4cc(F)c(Cl)cn34)n2)C1 [I-58, (S)-1-[2-(6-Chloro-7-fluoro-imidazo[1,2-a]pyridine-3-yl)-pyrimidin-4-yl]-piperidine-3-carboxylic acid (1H-pyrazol-4-yl)-amide] | – | – | 10 to 100 | 500 to 5000 |
| Cc1[nH]ncc1[C@@H]1CN(c2nccc(-c3cnc4ccc(Cl)cn34)n2)C[C@@H](C)O1 (stereo in doubt) [I-182, (2R,6R)-4-(4-(6-chloroimidazo[1,2-a]pyridin-3-yl)pyrimidin-2-yl)-2-methyl-6-(5-methyl-1H-pyrazol-4-yl)morpholine] | 10 to 100 | < 500 | – | – |
| COCCn1cc([C@H]2C[C@@H](C)CN(c3nccc(-c4cnc5ccc(C(F)(F)F)cn45)n3)C2)cn1 [I-143, 3-(2-((3R,5R)-3-(1-(2-methoxyethyl)-1H-pyrazol-4-yl)-5-methylpiperidin-1-yl)pyrimidin-4-yl)-6-(trifluoromethyl)imidazo[1,2-a]pyridine] | 10 to 100 | < 500 | – | – |
| FC(F)(F)c1ccc2ncc(-c3nsc(N4CCOC(c5cn[nH]c5)C4)n3)n2c1 (centres unmarked) [I-104, 2-(1H-pyrazol-4-yl)-4-(3-(6-(trifluoromethyl)imidazo[1,2-a]pyridin-3-yl)-1,2,4-thiadiazol-5-yl)morpholine] | – | 500 to 5000 | 10 to 100 | – |
| Cc1[nH]ncc1[C@H]1CN(c2nccc(-c3cnc4ccc(Cl)cn34)n2)C[C@H](C)O1 (stereo in doubt) [I-181, (2S,6S)-4-(4-(6-chloroimidazo[1,2-a]pyridin-3-yl)pyrimidin-2-yl)-2-methyl-6-(5-methyl-1H-pyrazol-4-yl)morpholine] | 10 to 100 | 500 to 5000 | – | – |
| Clc1ccc2ncc(-c3nccc(N4CCCC(c5ccon5)C4)n3)n2c1 (centres unmarked) [I-66, 6-Chloro-3-[4-(3-isoxazol-3-yl-piperidin-1-yl)-pyrimidin-2-yl]-imidazo[1,2-a]pyridine] | – | 500 to 5000 | 10 to 100 | – |
| COCCn1cc([C@@H]2C[C@H](C)CN(c3nccc(-c4cnc5ccc(C(F)(F)F)cn45)n3)C2)cn1 [I-146, 3-(2-((3S,5S)-3-(1-(2-methoxyethyl)-1H-pyrazol-4-yl)-5-methylpiperidin-1-yl)pyrimidin-4-yl)-6-(trifluoromethyl)imidazo[1,2-a]pyridine] | 100 to 1000 | 500 to 5000 | – | – |

More lines, main results first:

| IC50 (GCN2 kinase) [nM] | IC50 [1, 2] [nM] | Ki (GCN2 kinase) [nM] | SMILES | IC50 ([1]; GCN2 Biomarker (IC50), phosphorylated eIF2α Ser51) [nM] |
| --- | --- | --- | --- | --- |
| 100 to 1000 | 500 to 5000 | – | CC(C)n1ccc(C(=O)N2[C@H](C)CN(c3ccnc(-c4cnc5ccc(C(F)(F)F)cn45)n3)C[C@@H]2C)n1 [I-401, (cis-2,6-dimethyl-4-(2-(6-(trifluoromethyl)imidazo[12-a]pyridin-3-yl)pyrimidin-4-yl)piperazin-1-yl)(1-isopropyl-1H-pyrazol-3-yl)methanone] | – |
| 100 to 1000 | 500 to 5000 | – | C[C@@H]1CCN(c2ccnc(-c3cnc4ccc(C(F)(F)F)cn34)n2)CC1F (stereo in doubt) [I-240, 3-(4-((3R,4R)-3-fluoro-4-methylpiperidin-1-yl)pyrimidin-2-yl)-6-(trifluoromethyl)imidazo[1,2-a]pyridine] | – |
| 10 to 100 | 500 to 5000 | – | NC(=O)C1CN(c2ccnc(-c3cnc4ccc(C(F)(F)F)cn34)n2)CCN1C1COC1 (centres unmarked) [I-263, 1-(oxetan-3-yl)-4-(2-(6-(trifluoromethyl)imidazo[1,2-a]pyridin-3-yl)pyrimidin-4-yl)piperazine-2-carboxamide] | – |
| < 10 | < 500 | – | Cc1n[nH]cc1[C@@H]1CN(c2ccnc(-c3cnc4cc(Cl)c(C(F)(F)F)cn34)n2)C[C@@H](C)O1 [I-360, (2R,6R)-4-(2-(7-chloro-6-(trifluoromethyl)imidazo[1,2-a]pyridin-3-yl)pyrimidin-4-yl)-2-methyl-6-(3-methyl-1H-pyrazol-4-yl)morpholine] | – |
| 10 to 100 | < 500 | – | CC1(C)C[C@H]1CN1CCN(c2ccnc(-c3cnc4ccc(C(F)(F)F)cn34)n2)C[C@H]1c1cn[nH]c1 [I-526, 3-(4-((R)-4-(((R)-2,2-dimethylcyclopropyl)methyl)-3-(1H-pyrazol-4-yl)piperazin-1-yl)pyrimidin-2-yl)-6-(trifluoromethyl)imidazo[1,2-a]pyridine] | – |
| 10 to 100 | < 500 | – | COc1cc(-c2cnc3ccc(Cl)cn23)nc(N2C[C@H](C)C[C@@H](c3cn[nH]c3)C2)n1 [I-280, 6-chloro-3-(6-methoxy-2-((3R,5S)-3-methyl-5-(1H-pyrazol-4-yl)piperidin-1-yl)pyrimidin-4-yl)imidazo[1,2-a]pyridine] | – |
| 100 to 1000 | 500 to 5000 | – | CC(C)(C)OC(=O)N1CC2(C1)CN(c1ccnc(-c3cnc4ccc(C(F)(F)F)cn34)n1)CCO2 [I-386, tert-butyl 8-(2-(6-(trifluoromethyl)imidazo[1,2-a]pyridin-3-yl)pyrimidin-4-yl)-5-oxa-2,8-diazaspiro[3.5]nonane-2-carboxylate] | – |
| 100 to 1000 | > 5000 | – | CC1(C)CN(c2ccnc(-c3cnc4ccc(C(F)(F)F)cn34)n2)CC2(CNC2)O1 [I-294, 6,6-dimethyl-8-(2-(6-(trifluoromethyl)imidazo[1,2-a]pyridin-3-yl)pyrimidin-4-yl)-5-oxa-2,8-diazaspiro[3.5]nonane] | – |
| < 10 | < 500 | – | Cc1[nH]ncc1[C@H]1CN(c2ccnc(-c3cnc4cc(F)c(Cl)cn34)n2)C[C@@H](C)O1 [I-540, (2R,6S)-4-(2-(6-chloro-7-fluoroimidazo[1,2-a]pyridin-3-yl)pyrimidin-4-yl)-2-methyl-6-(5-methyl-1H-pyrazol-4-yl)morpholine] | – |
| 10 to 100 | 500 to 5000 | – | Cc1[nH]ncc1[C@H]1C[C@H](O)CN(c2ccnc(-c3cnc4ccc(C(F)(F)F)cn34)n2)C1 [I-307, (3 S, 5R)-5-(5-methyl-1H-pyrazol-4-yl)-1-(2-(6-(trifluoromethyl)imidazo[1,2-a]pyridin-3-yl)pyrimidin-4-yl)piperidin-3-ol] | – |
| 10 to 100 | 500 to 5000 | – | C[C@H]1CN(c2nccc(-c3cnc4ccc(Cl)cn34)n2)C[C@H](c2cn[nH]c2)O1 [I-246, (2S,6S)-4-(4-(6-chloroimidazo[1,2-a]pyridin-3-yl)pyrimidin-2-yl)-2-methyl-6-(1H-pyrazol-4-yl)morpholine] | – |
